We go through one compound from ChEMBL document CHEMBL5625202, “Synthesis, characterization and anti-breast cancer activities of stachydrine derivatives” (Eur J Med Chem, 2023).

Active and inactive are the calls of the source. No cut-off for these calls is given here.

For data set [1], the system named is 4T1. Kind of data set: Anticancer activity against mouse 4T1 cells assessed as inhibition of cell growth incubated for 48 hrs by CCK-8 assay. In kind it is functional, cell-based. To be noted: 4T1, 48 h.
Data set [2] deals with 4T1. Kind of data set: Induction of apoptosis in mouse 4T1 cells assessed as apoptotic rate at 10 micromol/L incubated for 24 hrs by Annexin-V/PI staining based flow cytometry relative to control. In kind it is functional. To be noted: dose 10 µmol/L, at 10 µM. In general terms: A flow cytometer gives signals particle by particle.
Data set [3] relates to 4T1. Kind of data set: Induction of mitochondrial membrane potential loss in mouse 4T1 cells assessed as red fluorescence at 10 uM incubated for 24 hrs by JC-1 staining based flow cytometric analysis (Rvb= 87.9%). The format is cell-based.
Data set [4] relates to 4T1. Put plainly: Induction of cell cycle arrest in mouse 4T1 cells assessed as accumulation of cells in G0/G1 phase at 40 micromol/L incubated for 24 hrs by flow cytometry (reference value: 53.6%). To be noted: dose 40 µmol/L, at 40 µM. In kind it is functional.
Data set [5] is described as follows: Toxicity in BALB/c mouse implanted with mouse 4T1 cells assessed as change in lung histopathology at 0.2 mmol/Kg, po administered once every day for 14 days. To be noted: in vivo, 336 h, time 14 day. In kind it is organism-based.
Data set [6] has as its system 4T1. Put plainly: Antitumor activity against mouse 4T1 cells implanted in BALB/c mouse assessed as appearance of larger void areas in tumor at 0.2 mmol/Kg, po administered once daily for 14 days by histological staining based analysis. To be noted: time 14.0 day. In kind it is functional, organism-based.
Data set [7] in a line: Toxicity in BALB/c mouse implanted with mouse 4T1 cells assessed as increase in monocytes at 0.2 mmol/Kg, po administered once every day for 14 days by routine blood analysis. The format is organism-based. To be noted: in vivo, 336 h, time 14 day.
The nature of data set [8]: Toxicity in BALB/c mouse implanted with mouse 4T1 cells assessed as reduction in spleen index at 0.2 mmol/Kg, po administered once every day for 14 days relative to control. The format is organism-based. Also on record: scale not given: the % may be the effect or the level left. To be noted: in vivo, 336 h, at 0.2 mmol/kg, time 14 day.
The nature of data set [9]: Toxicity in BALB/c mouse implanted with mouse 4T1 cells assessed as change in heart histopathology at 0.2 mmol/Kg, po administered once every day for 14 days. In kind it is organism-based. To be noted: in vivo, 336 h, time 14 day.
In data set [10] the test system is 4T1. Put plainly: Induction of apoptosis in mouse 4T1 cells assessed as increase in cleaved caspase-3 expression at 10 uM incubated for 24 hrs by Western blot analysis. The format is functional, cell-based. In general terms: A western blot detects proteins with antibodies after separation by electrophoresis.
A short description of data set [11]: Toxicity in BALB/c mouse implanted with mouse 4T1 cells assessed as increase in splenic red pulp at 0.2 mmol/Kg, po administered once every day for 14 days. To be noted: in vivo, 336 h, time 14 day. The format is organism-based.
The nature of data set [12]: Toxicity against BALB/c mouse implanted with mouse 4T1 cells assessed as animal death at 0.2 mmol/Kg, po administered once every day for 14 days. The format is organism-based. To be noted: in vivo, 336 h, time 14 day.
The nature of data set [13]: Prodrug conversion in serum (unknown origin) assessed as drug hydrolysis by measuring stachydrine release at 3 to 20 hrs. To be noted: time 3-20 hrs. In kind it is ADME, cell-free.
Data set [14] has as its system 4T1. Kind of data set: Antitumor activity against mouse 4T1 cells implanted in BALB/c mouse assessed as tumor cell necrosis at 0.2 mmol/Kg, po administered once every day for 14 days by histological staining based analysis. The format is functional, organism-based. To be noted: time 14.0 day.

In general, IC50 refers to the concentration at which inhibition is half-maximal. For `CCCCCCCCCCCCOC(=O)C1CCC[N+]1(C)C.[Cl-]` (centres undefined), the IC50 in the data set on 4T1 [1] is 17.9 µM. For the same compound, the Activity was 59% in the data set on 4T1 [2]; 43.1% in the data set with 4T1 [3]; 64.5% with 4T1 [4]; “Non-Toxic” in data set [5]; “Non-Toxic” in data set [7]; 60% in [8]. Further, the Activity result in data set [9] is on record as “Non-Toxic”; in [11] it was “Toxic”; in data set [12], “Non-Toxic”. Also, the outcome with 4T1 [6], in the data set on 4T1 [10] and in the data set on 4T1 [14] was Active. In addition, the Drug metabolism entry in data set [13] is given as “Metabolite_Detected”.
